Values belong to the sequence of their own block, whether it stands above or below them.
Target: T1, MyD88^TIR (Homo sapiens, UniProt Q99836)
T1 construct: MyD88 (residues 148–296); 6xHis; made in house; host or cells: E. coli BL21 (DE3)
Assay: T‐Surf phage library (P8 and P3) selection against MyD88^TIR, four rounds, NGS read counts
Format: binding
Details: for P8_MyD88 Rank (after) / P8_MyD88 Rank (before): P8 library; for P3_MyD88 Rank (after) / P3_MyD88 Rank (before): P3 library; for Population: 4th round of selection against MyD88 TIR, share of NGS reads
How it was run: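 Read counts come from NGS of phage pools after the fourth selection round, barcoded by 20-cycle PCR and filtered for quality ≥30. Each round: phage incubated 1 h at RT on immobilised TIR protein (5 µg mL^−1, BSA-blocked), washed, HCl-eluted and amplified in E. coli TG1.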

[1] = P8_MyD88: rank by NGS read count after grouping
[2] = P8_MyD88: rank by NGS read count before grouping
[3] = 4R selection against MyD88, rank after grouping
[4] = 4R selection against MyD88, rank before grouping
[5] = selection against MyD88, rank after grouping
[6] = selection against MyD88, rank before grouping
[7] = selection against MyD88 TIR, rank by count after grouping
[8] = selection against MyD88 TIR, rank by count before grouping
[9] = P3_MyD88 pool: P3 T-Surf phage library
[10] = selection against MyD88, rank by count after grouping
[11] = selection against MyD88, rank by count before grouping
[12] = P8_MyD88: rank by count after grouping
[13] = P8_MyD88: rank by count before grouping
[14] = P3_MyD88: rank by count after grouping
[15] = P3_MyD88: rank by count before grouping
[16] = P8_MyD88 pool: P8 T-Surf phage library

T1 sequence (Q99836 148-296): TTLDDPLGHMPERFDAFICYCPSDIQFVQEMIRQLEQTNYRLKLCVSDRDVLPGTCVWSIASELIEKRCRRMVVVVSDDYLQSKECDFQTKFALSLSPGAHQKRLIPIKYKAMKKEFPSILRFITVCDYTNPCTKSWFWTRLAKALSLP

Sequence: DPQDLAWVYERLVSPV
P8_MyD88 Rank (after) [3]: 628
P8_MyD88 Rank (before) [4]: 2733

Sequence: YQWRNALSAAANLCGW
P3_MyD88 Rank (after) [5]: 569
P3_MyD88 Rank (before) [6]: 1617

Sequence: YELDFSHFWLFDAGGDA
P8_MyD88 Rank (after) [7]: 265
P8_MyD88 Rank (before) [8]: 537

Sequence: YYDSRWALNELLEIL
Rank (after) [1]: 903
Rank (before) [2]: 1682

Sequence: NGHESEIIKEIVDTFM
P3_MyD88 Rank (after) [7]: 243
P3_MyD88 Rank (before) [8]: 1232

Sequence: DPQDLDWFFERLVSLL
Rank (after) [12]: 117
Rank (before) [13]: 707

Sequence: EWNRKQKRPDQKERLQ
P3_MyD88 Rank (after) [3]: 608
P3_MyD88 Rank (before) [4]: 2185

Sequence: GWIREHLWPLLKQRMT
P3_MyD88 Rank (after) [5]: 521
P3_MyD88 Rank (before) [6]: 1877

Sequence: DLLRHLIEAFSRMHIN
Rank (after) [1]: 940
Rank (before) [2]: 2389

Sequence: DHHLDLPRGKAIKE
P3_MyD88 Rank (after) [5]: 550
P3_MyD88 Rank (before) [6]: 2017

Sequence: YATSSWALNELVYLIM
Rank (after) [12]: 146
Rank (before) [13]: 162
Population [16]: 0.00886%

Sequence: SENYATSPWALDELVP
Population [9]: 0.00437%

Sequence: HPWRNTLTAAANLNGR
P3_MyD88 Rank (after) [5]: 546
P3_MyD88 Rank (before) [6]: 2804

Sequence: LKWGDPAYRLALHYRDFN
P3_MyD88 Rank (after) [5]: 500
P3_MyD88 Rank (before) [6]: 2445

Sequence: DTKLKKGESIAPELVL
Rank (after) [14]: 185
Rank (before) [15]: 972

Sequence: SPWALYELAMIIEAM
P8_MyD88 Rank (after) [5]: 503
P8_MyD88 Rank (before) [6]: 3761

Sequence: STTYLQWGDNWFWDKL
P8_MyD88 Rank (after) [10]: 740
P8_MyD88 Rank (before) [11]: 3819

Sequence: SENYATSTWAPDELVR
P3_MyD88 Rank (after) [5]: 496
P3_MyD88 Rank (before) [6]: 2998

Sequence: WEDVRINFLSHFLKEL
P8_MyD88 Rank (after) [7]: 253
P8_MyD88 Rank (before) [8]: 434

Sequence: YASSTWWLRELLQIA
Rank (after) [12]: 147
Rank (before) [13]: 208

Sequence: SSFREGLWRLLELGKK
Population [9]: 0.00437%

Sequence: DPQDMEWFYERLVSLIL
P8_MyD88 Rank (after) [3]: 602
P8_MyD88 Rank (before) [4]: 2975

Sequence: NQWRHALTAEANLSGW
Rank (after) [14]: 408
Rank (before) [15]: 3472

Sequence: DTKLKKGRKHCAGTAA
Rank (after) [14]: 454
Rank (before) [15]: 2099

Sequence: ELDFSHFWLFEAGGDA
Population [16]: 0.02%

Sequence: YYLDPSHLRKQSVEFS
Rank (after) [14]: 473
Rank (before) [15]: 1451

Sequence: SSIREGLWRQLELSKK
P3_MyD88 Rank (after) [3]: 665
P3_MyD88 Rank (before) [4]: 3277

Sequence: NQWPNALTAAANLRGW
Rank (after) [14]: 132
Rank (before) [15]: 3534

Next, values leading:

Rank (after) [1]: 904
Rank (before) [2]: 2439
Sequence: DWVWDYLLPNLEGHAT

P3_MyD88 Rank (after) [5]: 520
P3_MyD88 Rank (before) [6]: 2142
Sequence: EWIREQLRPALKNVC

P8_MyD88 Rank (after) [7]: 193
P8_MyD88 Rank (before) [8]: 246
Sequence: DPMVAEWVLNHLRFEL

Population [9]: 0.00291%
Sequence: SGFREGLWRLLELSKK

P8_MyD88 Rank (after) [10]: 743
P8_MyD88 Rank (before) [11]: 2995
Sequence: DPQEQLSFCERLITVF

Rank (after) [14]: 445
Rank (before) [15]: 2411
Sequence: LKWGGSCLSIKLAYAM

Rank (after) [1]: 928
Rank (before) [2]: 3268
Sequence: LGYHWIDWEYFEGIAD

Rank (after) [14]: 419
Rank (before) [15]: 3517
Sequence: NQWRNALTATANLSGC

Population [9]: 0.00291%
Sequence: SSFREGLRRLLELSKK

Population [9]: 0.00291%
Sequence: NQWRNALTAAASLSGW

P3_MyD88 Rank (after) [10]: 741
P3_MyD88 Rank (before) [11]: 3045
Sequence: SELRVVDDGSVSPRET

Rank (after) [14]: 170
Rank (before) [15]: 1156
Sequence: MNWCMCGAAKRIAWW

P8_MyD88 Rank (after) [7]: 234
P8_MyD88 Rank (before) [8]: 371
Sequence: FRGEDIADNFLSHLVVAL

P8_MyD88 Rank (after) [5]: 547
P8_MyD88 Rank (before) [6]: 3345
Sequence: LGYHWLNWESFVGIED

P8_MyD88 Rank (after) [5]: 511
P8_MyD88 Rank (before) [6]: 1815
Sequence: YASYDDNDYYWDPCAAASS

Rank (after) [12]: 160
Rank (before) [13]: 177
Population [16]: 0.00771%
Sequence: VASHWALEELRMIMDF

P3_MyD88 Rank (after) [10]: 689
P3_MyD88 Rank (before) [11]: 1657
Sequence: YTALTNSGCHTFRVND

Rank (after) [14]: 469
Rank (before) [15]: 3286
Sequence: RERPVGAQRGVRSLAT

Rank (after) [1]: 911
Rank (before) [2]: 2804
Sequence: DPQDLDWFYETSGEPD

P8_MyD88 Rank (after) [7]: 247
P8_MyD88 Rank (before) [8]: 2852
Sequence: DPQDLEWFYERLGSLF

P8_MyD88 Rank (after) [5]: 505
P8_MyD88 Rank (before) [6]: 3051
Sequence: DQQDLDWFYERLVSVF

P3_MyD88 Rank (after) [5]: 508
P3_MyD88 Rank (before) [6]: 2953
Sequence: SEIYATSPWALDVLVL

Population [9]: 0.00291%
Sequence: YAFTGHLHATL

Source: PMC11714206, “Massively Parallel Screening of Toll/Interleukin‐1 Receptor (TIR)‐Derived Peptides Reveals Multiple Toll‐Like Receptors (TLRs)‐Targeting Immunomodulatory Peptides” (Advanced Science, 2024)
